Results: patent publication US20120027819A1, “Medical Devices Incorporating a Bioactive and Methods of Preparing Such Devices” (priority 2006, published 2012)

Tests used:
[1] = cited from earlier work
[2] = Exposure of coated ureteral stent to water / aqueous environment (FIGS. 8, 10); type: physicochemical
Text: (§1) An approximately 0.6% solution of bupivacaine having a tertiary amine in the non-ionic form (formula (2a) above) in dichloromethane was loaded into a syringe mounted onto a syringe pump and connected to a tube that carried the solution to an ultrasonic nozzle (Model 06-05108—Sono-Tek Co., Poughkeepsie, N.Y. 12547.) A nozzle was 6 mm diameter, 11 mm long and used with a nominal frequency of 120 kHz. Air was purged from the solution line and the spray nozzle primed with the solution. The coating chamber was purged with nitrogen to attain an oxygen concentration below 100 ppm. The solution was sprayed onto ureteral stent substrates 20 to 280 mm long (polyurethane double pigtail soflex ureteral stent, Cook Incorporated (Bloomington, Ind.)). A smooth, uniform coating was observed. Control stents were coated with the same concentration of Bupivacaine.HCl using the above coating method.
FIGS. 8-11 depict photomicrographs of the coatings showing the uniformity and tenacity of the non-ionic coatings, in contrast to the water-soluble ionic coatings. […] FIG. 9 depicts a relatively rough, crystalline coating 91 of bupivacaine-HCl on a ureteral stent 90, on the left, and the same stent after a one-minute ex vivo exposure to a pig ureter.
FIG. 11 then depicts the same type of stent 110 with a coating 114 of the non-ionic form of bupivacaine after 24 hours in an ex vivo test with a pig ureter.

[3] = Elution of bupivacaine from spray-coated ureteral stents in aqueous buffers (Example 1, FIG. 7); type: physicochemical; details: for time to release/elute from coated stent (in words): ionic form coated on stent, aqueous environment, same conditions, hydrochloride
Text: as §1
The stents were placed in solutions at different pH values to test the elution of bupivacaine over time. […] Acetic acid/sodium acetate was used for the pH 4.5 buffer, 0.1M phosphate-buffered solution (PBS) for the pH 7.0 buffer, and sodium carbonate for the pH 9.5 buffer.

[4] = cited from earlier work; remark: listed apart in the source

CCCCN1CCCCC1C(=O)Nc1c(C)cccc1C.Cl (stereo not drawn) [Bupivacaine.HCl, 1-butyl-N-(2,6-dimethylphenyl)-2-piperidinecarboxamide hydrochloride]
water solubility (in words) [1]: soluble in water
state of coating after dipping in water ([2]; dipped in water for one minute): substantially dissolved
time to release/elute from coated stent (in words) [3]: within a matter of minutes
time to release/elute from coated stent (in words) ([3]; listed as bupivacaine.HCl): eluted fully within minutes

C[C@@H]1C[C@H]2[C@@H]3CCC4=CC(=O)C=C[C@]4(C)[C@@]3(F)[C@@H](O)C[C@]2(C)[C@@]1(O)C(=O)CO [Dexamethasone]
water solubility (in words) [1]: practically insoluble in water

CCCCN1CCCCC1C(=O)Nc1c(C)cccc1C (stereo not drawn) [bupivacaine, 1-Butyl-N-(2,6-dimethylphenyl)-2-piperidinecarboxamide]
pKa ([4]; Table 1, acidic proton of proton binding site): 8.09
pKa of acidic proton of proton binding site ([4]; in water): about 8
solubility ([1]; base or non-ionic form, water): about 0.2 mg/mL
water solubility (in words) [1]: only very slightly soluble in water
state of coating after aqueous exposure ([2]; exposed to an aqueous environment for several days): virtually no effect on the coating
effect of eluting solution pH on elution rate ([3]; increasing the pH from 4.5 to 9.5): slightly slowed the rate of bupivacaine elution
period over which release from ureteral stent occurs ([3]; non-ionic form coated on ureteral stent, buffers pH 4.5, 7.0, 9.5): about 12 days
